Laboratory results: ChEMBL document CHEMBL1909046, “DrugMatrix in vitro pharmacology data”

Experiments:
[1] = DRUGMATRIX: GABAA, Flunitrazepam, Central radioligand binding (ligand: [3H] Flunitrazepam); type: cell membranes, Rattus norvegicus, Wistar, Brain, Membrane; conditions: Not Active = under 50% inhibition at 10 µM
[2] = DRUGMATRIX: Sigma2 radioligand binding (ligand: [3H] Ifenprodil); type: cell membranes, Rattus norvegicus, Wistar, Brain, Membrane; conditions: Not Active = under 50% inhibition at 10 µM
[3] = DRUGMATRIX: ATPase, Na+/K+ enzyme inhibition (substrate: ATP); type: tissue-based, Sus scrofa, Heart; conditions: Not Active = under 50% inhibition at 10 µM
[4] = DRUGMATRIX: Glutamate, NMDA, Agonism radioligand binding (ligand: [3H] CGP-39653); type: cell membranes, Rattus norvegicus, Wistar, Cerebral cortex, Membrane; conditions: Not Active = under 50% inhibition at 10 µM
[5] = molecular target: Glycine receptor (Rattus norvegicus, UniProt P22771+P24524+P07727+P20781); type: cell membranes, Wistar, Spinal cord, Membrane; note: in other assays of this panel Not Active means under 50% inhibition at 10 µM
[6] = molecular target: T1, Cholecystokinin receptor type A (Homo sapiens, UniProt P32238); type: cell membranes, Membrane; conditions: 1321-n1; note: in other assays of this panel Not Active means under 50% inhibition at 10 µM
T1 sequence (P32238 whole entry): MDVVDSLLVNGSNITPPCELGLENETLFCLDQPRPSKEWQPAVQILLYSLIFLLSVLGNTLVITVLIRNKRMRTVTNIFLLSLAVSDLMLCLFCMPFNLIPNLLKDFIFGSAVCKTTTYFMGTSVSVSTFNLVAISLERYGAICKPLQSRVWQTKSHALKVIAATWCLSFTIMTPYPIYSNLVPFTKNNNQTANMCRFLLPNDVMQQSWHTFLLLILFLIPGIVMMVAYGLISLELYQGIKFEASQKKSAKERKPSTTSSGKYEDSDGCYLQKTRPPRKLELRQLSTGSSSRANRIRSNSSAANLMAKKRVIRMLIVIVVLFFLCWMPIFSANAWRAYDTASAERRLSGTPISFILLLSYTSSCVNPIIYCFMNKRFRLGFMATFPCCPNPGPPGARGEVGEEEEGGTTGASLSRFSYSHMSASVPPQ

[7] = molecular target: T2, Muscarinic acetylcholine receptor M2 (Homo sapiens, UniProt P08172); type: cell membranes, CHO-K1, Membrane; conditions: cho-k1; note: in other assays of this panel Not Active means under 50% inhibition at 10 µM
T2 sequence (P08172 whole entry): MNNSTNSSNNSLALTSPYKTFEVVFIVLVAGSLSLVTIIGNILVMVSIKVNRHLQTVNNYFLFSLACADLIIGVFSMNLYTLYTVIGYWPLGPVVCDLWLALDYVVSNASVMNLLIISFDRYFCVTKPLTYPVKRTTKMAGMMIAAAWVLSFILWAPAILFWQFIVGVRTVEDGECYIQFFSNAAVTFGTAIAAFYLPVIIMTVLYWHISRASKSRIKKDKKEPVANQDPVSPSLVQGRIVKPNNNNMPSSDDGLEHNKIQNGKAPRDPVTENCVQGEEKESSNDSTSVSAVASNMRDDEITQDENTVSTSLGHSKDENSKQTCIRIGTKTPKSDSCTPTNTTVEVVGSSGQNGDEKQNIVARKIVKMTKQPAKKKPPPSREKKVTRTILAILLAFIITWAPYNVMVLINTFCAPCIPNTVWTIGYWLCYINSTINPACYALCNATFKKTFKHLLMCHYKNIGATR

CCN1CC(CCN2CCOCC2)C(c2ccccc2)(c2ccccc2)C1=O (configuration not stated) [DOXAPRAM]
Not Active: IC50 [1] | Ki [1] | IC50 [2] | Ki [2] | IC50 [3] | Ki [3] | IC50 [4] | Ki [4] | IC50 [5] | IC50 [6] | IC50 [7]

Cn1c(=O)c2c(ncn2CC2OCCO2)n(C)c1=O [DOXOFYLLINE]
Not Active: IC50 [1] | Ki [1] | IC50 [2] | Ki [2] | IC50 [3] | Ki [3] | IC50 [4] | Ki [4] | IC50 [5] | IC50 [6] | IC50 [7]

COc1cccc2c1C(=O)c1c(O)c3c(c(O)c1C2=O)C[C@@](O)(C(=O)CO)C[C@@H]3O[C@H]1C[C@H](N)[C@H](O)[C@H](C)O1 [DOXORUBICIN]
Not Active: IC50 [1] | Ki [1] | IC50 [2] | Ki [2] | IC50 [3] | Ki [3] | IC50 [4] | Ki [4] | IC50 [5] | IC50 [6] | IC50 [7]

COc1cccc2c1C(=O)c1c(O)c3c(c(O)c1C2=O)C[C@@](O)(C(=O)CO)C[C@@H]3O[C@H]1C[C@H](N)[C@@H](O)[C@H](C)O1 [EPIRUBICIN]
Not Active: IC50 [1] | Ki [1] | IC50 [2] | Ki [2] | IC50 [3] | Ki [3] | IC50 [4] | Ki [4] | IC50 [5] | IC50 [6] | IC50 [7]

C[C@]12CC[C@@H]3c4ccc(OC(=O)c5ccccc5)cc4CC[C@H]3[C@@H]1CC[C@@H]2O [ESTRADIOL BENZOATE]
Not Active: IC50 [1] | Ki [1] | IC50 [2] | Ki [2] | IC50 [3] | Ki [3] | IC50 [4] | Ki [4] | IC50 [5] | IC50 [6] | IC50 [7]

C[C@]12CC[C@@H]3c4ccc(O)cc4CC[C@H]3[C@@H]1CC[C@@H]2O [ESTRADIOL]
Not Active: IC50 [1] | Ki [1] | IC50 [2] | Ki [2] | IC50 [3] | Ki [3] | IC50 [4] | Ki [4] | IC50 [5] | IC50 [6] | IC50 [7]

CC[C@@H](CO)NCCN[C@@H](CC)CO [ETHAMBUTOL]
Not Active: IC50 [1] | Ki [1] | IC50 [2] | Ki [2] | IC50 [3] | Ki [3] | IC50 [4] | Ki [4] | IC50 [5] | IC50 [6] | IC50 [7]
